Experimental data reported in the OPERA property sets (Mansouri et al. 2018).

Conditions: not given

Point of comparison: `CC(C)CS`, log10 vapour pressure (mmHg) 1.84. Against it:
- NS(=O)(=O)C(F)(F)C(F)(F)C(F)(F)C(F)(F)C(F)(F)C(F)(F)C(F)(F)C(F)(F)F — lower, -0.606
- Nc1ccc(N=Nc2ccc([N+](=O)[O-])cc2)cc1 — lower, -9.52
- CCOC(=O)CC(=O)c1ccccc1 — lower, -3.39
- CCCc1ccccc1 — lower, 0.534
- COc1cc(Cl)c(Cl)cc1O — lower, -2.35
- CCOC(=O)CC(=O)OCC — lower, -0.57
- C=COC — higher, 3.12
- FCC(F)(F)F — higher, 3.7
- OC(O)C(Cl)(Cl)Cl — lower, 1.18
- CC(C)C[N+](=O)[O-] — lower, 0.838
- CNC(=O)N(C)c1nc2ccccc2s1 — lower, -6.95
- CC1=C(C(=O)Nc2ccccc2)S(=O)(=O)CCO1 — lower, -7.38
- O=CCCCC=O — lower, -0.222
- COC(=O)c1cc(Oc2ccc(Cl)cc2Cl)ccc1[N+](=O)[O-] — lower, -7
- O=C1c2ccccc2C(=O)c2c1cccc2[N+](=O)[O-] — lower, -8.4
- c1ccc2c(c1)[nH]c1ccccc12 — lower, -6.12
- CCc1cc(C)ccc1C — lower, -0.0272
- c1ccc2[nH]c(-c3cscn3)nc2c1 — lower, -8.4
- C1CS1 — higher, 2.4
- CC(=O)O[C@@H]1CC2CCC1(C)C2(C)C (stereo partly drawn) — lower, -0.642
- Cc1c(F)c(F)c(COC(=O)C2C(/C=C(\Cl)C(F)(F)F)C2(C)C)c(F)c1F (stereo not drawn) — lower, -4.22
- COc1nn(CSP(=S)(OC)OC)c(=O)s1 — lower, -5.47
- Cc1ccccc1N(C)C — lower, -0.0643
- CC(C)OC(=O)CCl — lower, 0.613
- ClCC(Cl)(Cl)Cl — lower, 1.08
- CCCCOCCOCCOCCO — lower, -2.6

Point of comparison: `CN(C)Cc1ccccc1`, boiling point 181 °C. Against it:
- FC(F)(F)C(F)(F)C(F)(F)C(F)(F)C(F)(F)C(F)(F)C(F)(F)C(F)(F)I — lower, 160 °C
- CCCc1ccccc1 — lower, 159 °C
- CCCCOc1ccc(C)cc1 — higher, 230 °C
- CCB(Cl)CC — lower, 78.5 °C
- CC(=O)C[C@H](C)O — lower, 177 °C
- CCCCC(C(C)=O)C(=O)OCC (stereo not drawn) — higher, 222 °C
- CCOC(=O)CC(=O)OCC — higher, 200 °C
- C=COC — lower, 5.5 °C
- FCC(F)(F)F — lower, -26 °C
- CCc1ccccc1OC — higher, 187 °C
- Nc1c(F)c(F)c(C(F)(F)F)c(F)c1F — higher, 186 °C
- CC#CCCC — lower, 84.5 °C
- N#Cc1ccnc2ccccc12 — higher, 242 °C
- OC(O)C(Cl)(Cl)Cl — lower, 98 °C
- CC(C)C[N+](=O)[O-] — lower, 140 °C
- C=CCCCl — lower, 75 °C
- Cc1cc(C)c(C)c(O)c1C — higher, 247 °C
- ClC=CCCl (mixture of isomers) — lower, 109 °C
- CC(C)CS — lower, 88.5 °C
- COC(=O)C(=O)Cl — lower, 119 °C
- Oc1cc(Cl)c(Cl)c(Cl)c1 — higher, 275 °C
- c1ccc2c(c1)[nH]c1ccccc12 — higher, 355 °C
- CC=CCC — lower, 36.7 °C
- CCc1cc(C)ccc1C — higher, 187 °C
- Brc1ccc2ccccc2c1 — higher, 282 °C
- C1CS1 — lower, 55.5 °C
- CC(=O)O[C@@H]1CC2CCC1(C)C2(C)C (stereo partly drawn) — higher, 221 °C
- CC(=O)c1cc(C)ccc1C — higher, 232 °C
- Cc1cc(C)c(O)cc1O — higher, 276 °C
- c1ccc(CNc2ccccc2)cc1 — higher, 306 °C
- COC(=O)C(Br)CBr (stereo not drawn) — higher, 206 °C
- Fc1ccccc1Cl — lower, 138 °C
- C=CCOC(=O)c1ccco1 — higher, 208 °C
- CCOC(Cl)CCl (stereo not drawn) — lower, 145 °C
- CCOC(=O)C(C)(C)C(=O)OCC — higher, 197 °C
- N#CCCCBr — higher, 206 °C
- Cc1ccccc1N(C)C — higher, 194 °C
- CC1=CCCC1=O — lower, 157 °C
- CC(C)OC(=O)CCl — lower, 150 °C
- COCC(COC)OC — lower, 148 °C
- ClCC(Cl)(Cl)Cl — lower, 130 °C
- CCCCOCCOCCOCCO — higher, 278 °C

Point of comparison: `CNC(=O)N(C)c1nc2ccccc2s1`, melting point 120 °C. Against it:
- FC(F)(F)C(F)(F)C(F)(F)C(F)(F)C(F)(F)C(F)(F)C(F)(F)C(F)(F)I — lower, 20.8 °C
- CC(=O)CC(=O)Nc1ccc(Cl)cc1 — higher, 132 °C
- COC(=O)[C@@H]1[C@H]2C[C@H]3c4[nH]c5ccccc5c4CCN3C[C@@H]2CC[C@@H]1O — higher, 251 °C
- CCCCCCCCCCCCCCCCCCCCCC(=O)OC — lower, 54 °C
- NNc1ccc(S(=O)(=O)O)cc1 — higher, 286 °C
- Nc1ccc(N=Nc2ccc([N+](=O)[O-])cc2)cc1 — higher, 215 °C
- Cc1cc(C(=O)NNCc2ccccc2)no1 — lower, 106 °C
- NS(=O)(=O)c1cc(Cl)c(Cl)c(S(N)(=O)=O)c1 — higher, 229 °C
- O=C(OCc1ccccc1)c1ccccc1C(=O)OCc1ccccc1 — lower, 44 °C
- CCCc1ccccc1 — lower, -99.5 °C
- CCB(Cl)CC — lower, -84.6 °C
- CCOC(=O)CC(=O)OCC — lower, -50 °C
- O=C(c1ccccc1)C1CC1 — lower, -7.9 °C
- COc1cc(C=CCO)ccc1O — lower, 74 °C
- C=COC — lower, -122 °C
- O=[N+]([O-])c1ccc(/C=C/c2cccc(CO)n2)o1 — higher, 170 °C
- FCC(F)(F)F — lower, -101 °C
- CC(C)(C)NC[C@H](O)COc1ccccc1C1CCCC1 — lower, 70 °C
- C[C@@H]1O[C@@H](O[C@H]2CC[C@]3(C=O)[C@H]4CC[C@]5(C)[C@@H](C6=CC(=O)OC6)CC[C@]5(O)[C@@H]4CC[C@]3(O)C2)[C@H](O)[C@H](O)[C@H]1O — higher, 238 °C
- OCCOc1ccc2ccccc2c1 — lower, 76.7 °C
- Oc1ccccc1C1CCCC1 — lower, 34.5 °C
- O=Cc1ccccc1C=O — lower, 56.5 °C
- CC#CCCC — lower, -89.6 °C
- COc1ccc2[nH]cc(CCN(C)C)c2c1 — lower, 69.5 °C
- N#Cc1ccnc2ccccc12 — lower, 104 °C
- OC(O)C(Cl)(Cl)Cl — lower, 57 °C
- CC(C)C[N+](=O)[O-] — lower, -76.8 °C
- O=[N+]([O-])c1ccc(O/N=C/c2cc(Br)c(O)c(Br)c2)c([N+](=O)[O-])c1 — higher, 196 °C
- Cc1cc(C)c(C)c(O)c1C — lower, 118 °C
- CCCCn1c(=O)c2c(ncn2C)n(C)c1=O — lower, 108 °C
- Cc1ccc(OCC(=O)O)cc1 — higher, 141 °C
- CC1=C(C(=O)Nc2ccccc2)S(=O)(=O)CCO1 — the same, 120 °C
- C[C@H](CCC(=O)O)[C@H]1CC[C@H]2[C@@H]3CC[C@@H]4C[C@H](O)CC[C@]4(C)[C@H]3CC[C@]12C — higher, 186 °C
- ClC=CCCl (mixture of isomers) — lower, -50 °C
- O=C(O)Cc1ccc(Cl)cc1 — lower, 106 °C
- COC(=O)c1cc(Oc2ccc(Cl)cc2Cl)ccc1[N+](=O)[O-] — lower, 85 °C
- O=C(O)c1nn(Cc2ccc(Cl)cc2Cl)c2ccccc12 — higher, 207 °C
- O=C1c2ccccc2C(=O)c2c1cccc2[N+](=O)[O-] — higher, 232 °C
- Oc1cc(Cl)c(Cl)c(Cl)c1 — lower, 101 °C
- Cc1c(N)cc([N+](=O)[O-])cc1[N+](=O)[O-] — higher, 174 °C
- O=C(Cl)c1ccc(Cl)cc1Cl — lower, 16.5 °C
- O=c1c(O)c(-c2ccccc2)oc2cc(O)cc(O)c12 — higher, 214 °C
- Cc1c2ccncc2c(C)c2c1[nH]c1ccccc12 — higher, 313 °C
- c1ccc2c(c1)[nH]c1ccccc12 — higher, 246 °C
- CC=CCC — lower, -146 °C
- CCc1cc(C)ccc1C — lower, -53.7 °C
- OC(CCN1CCCCC1)(c1ccccc1)C1CC2C=CC1C2 (stereo not drawn) — lower, 114 °C
- Brc1ccc2ccccc2c1 — lower, 59 °C
- c1ccc2[nH]c(-c3cscn3)nc2c1 — higher, 300 °C
- CC(=O)O[C@@H]1CC2CCC1(C)C2(C)C (stereo partly drawn) — lower, 29 °C
- Cc1c(F)c(F)c(COC(=O)C2C(/C=C(\Cl)C(F)(F)F)C2(C)C)c(F)c1F (stereo not drawn) — lower, 44.6 °C
- CC(=O)c1cc(C)ccc1C — lower, -18.1 °C
- O=C(O)COc1ccc(Cl)c(Cl)c1 — higher, 139 °C
- Nc1ccc(C(=O)O)cn1 — higher, 312 °C
- Cc1cc(C)c(O)cc1O — higher, 126 °C
- O=C(Cn1c(=O)sc2ccc(Cl)cc21)N1CCN(CCO)CC1 — higher, 160 °C
- Clc1ccccc1C=C1c2ccccc2-c2ccccc21 — lower, 69.5 °C
- COc1nn(CSP(=S)(OC)OC)c(=O)s1 — lower, 39 °C
- c1ccc(CNc2ccccc2)cc1 — lower, 37.5 °C
- Fc1ccccc1Cl — lower, -43 °C
- CCOC(=O)C(C)(C)C(=O)OCC — lower, -30.4 °C
- O=C(O)c1cc(I)c(I)c(I)c1 — higher, 292 °C
- OC1CCCCCCCCCCC1 — lower, 77.5 °C
- Cc1ccccc1N(C)C — lower, -60 °C
- ClCC(Cl)(Cl)Cl — lower, -70.2 °C
- CCCCOCCOCCOCCO — lower, -30 °C

For `COCN(COC)c1nc(N(COC)COC)nc(N(COC)COC)n1`, the ready biodegradability was “not readily biodegradable”.
With `COC(=O)C=CC(=O)OC` the ready biodegradability was “readily biodegradable”.
In the case of `CCCc1ccccc1`, the ready biodegradability is reported as “readily biodegradable”.
In the case of `NNC(=O)CCCCC(=O)NN`, the ready biodegradability is reported as “not readily biodegradable”.
In the case of `CCOC(=O)CC(=O)OCC`, the ready biodegradability is reported as “readily biodegradable”.
For `CC(C)(C)OOC(C)(C)c1ccc(C(C)(C)OOC(C)(C)C)cc1`, the ready biodegradability was “not readily biodegradable”.
With `CN(C)Cc1ccccc1` the ready biodegradability was “not readily biodegradable”.
With `c1ccc2c(c1)[nH]c1ccccc12` the ready biodegradability was “not readily biodegradable”.

Point of comparison: `c1ccc2[nH]c(-c3cscn3)nc2c1`, log10 Koc (L/kg) 3.24. Against it:
- C#CC(C)(C)NC(=O)c1ccc(OC)cc1 — lower, 1.83
- CCCc1ccccc1 — lower, 2.87
- CNC(=O)N(C)c1nc2ccccc2s1 — lower, 2.8
- CC1=C(C(=O)Nc2ccccc2)S(=O)(=O)CCO1 — lower, 1.98
- ClC=CCCl (mixture of isomers) — lower, 1.67
- CNC(=O)Oc1cccc2c1OC(C)(C)O2 — lower, 2.75
- COC(=O)c1cc(Oc2ccc(Cl)cc2Cl)ccc1[N+](=O)[O-] — higher, 4
- Oc1cc(Cl)c(Cl)c(Cl)c1 — higher, 3.56
- c1ccc2c(c1)[nH]c1ccccc12 — within 0.2 log units, 3.4
- COc1nn(CSP(=S)(OC)OC)c(=O)s1 — lower, 1.53

Point of comparison: `CCCc1ccccc1`, log10 Henry constant (atm·m³/mol) -1.98. Against it:
- FCC(F)(F)F — higher, -1.3
- ClC=CCCl (mixture of isomers) — lower, -2.62
- c1ccc2c(c1)[nH]c1ccccc12 — lower, -6.94
- OC1CCCCCCCCCCC1 — lower, -5.53
- ClCC(Cl)(Cl)Cl — lower, -2.6

Point of comparison: `CCCc1ccccc1`, log10 Koa 4.09. Against it:
- Clc1ccc(-c2c(Cl)ccc(Cl)c2Cl)cc1Cl — higher, 9.06

Point of comparison: `CCCc1ccccc1`, log10 biodegradation half-life (days) 0.602. Against it:
- CCc1cc(C)ccc1C — within 0.2 log units, 0.477

Same assay, conditions: fish

Point of comparison: `COc1nn(CSP(=S)(OC)OC)c(=O)s1`, log10 BCF 0.74. Against it:
- COCN(COC)c1nc(N(COC)COC)nc(N(COC)COC)n1 — lower, 0.54
- COc1cc(Cl)c(Cl)cc1O — higher, 2.03
- CN(C)Cc1ccccc1 — higher, 1.15
- c1ccc2c(c1)[nH]c1ccccc12 — higher, 2.23

Point of comparison: `CCCCC(CC)COC(=O)c1nc(Cl)c(Cl)c(N)c1Cl` (stereo not drawn), log10 biotransformation half-life (days) 0.45. Against it:
- COc1cc(Cl)c(Cl)cc1O — lower, -0.15
- Clc1cc(Cl)c(Oc2cc(Cl)c(Cl)cc2Cl)cc1Cl — higher, 1.98
- Clc1ccc(-c2c(Cl)ccc(Cl)c2Cl)cc1Cl — higher, 2.63
- Cc1cc2ccccc2c2ccccc12 — lower, 0.12
- c1ccc2c(c1)[nH]c1ccccc12 — lower, 0.06
- COc1nn(CSP(=S)(OC)OC)c(=O)s1 — lower, -1.15
